From patent US5773449A, “Thioquinolone compounds which have useful pharmaceutical activity” (Zenyaku Kogyo Kabushiki Kaisha, priority 1994, dated 1998)
Converted amounts (≈) assume the structure as drawn.

Legend:
peptic ulcer = conditions: H2-blocker / proton-pump inhibitor; cited from earlier work
B.subtilis PCI 219 = test: Antibacterial Test 2: agar plate dilution method (aerobic MIC method), B.subtilis; type: cell-based; conditions: Bacillus subtilis, PCI219, sensitive-disk agar medium-N
Description: (§1) Then, tested were antibacterial activities of the typical compounds of the present invention against gram-positive and-negative bacteria other than Hp. MICs of the typical compounds of the present invention were determined in substantial accordance with agar plate dilution method (aerobic MIC method) based on Standard method of The Japan Society of Chemotherapy.
(§2) The respective test compound were dissolved in dimethyl sulfoxide (DMSO) and serially diluted twofold. These diluted solutions of the compounds were respectively added to sensitive-disk agar medium-N (manufactured by NISSUI SEIYAKU) to prepare agar plates for determination with concentration of 0.05-100 μg/ml.
(§3) The below-mentioned strains freezingly conserved at -135° C. were thawed in a warm bath (40° C.), cultured in a sensitivity-determining bouillon at 37° C. for 18-20 hours, and then diluted with the above-mentioned medium to prepare about 1.0×10^6CFU/ml of bacterial solution.
(§4) Inoculation was made by 5 μl by multi-inoculator (manufactured by SAKUMA SEISAKUSHO). Culturing was made under the same conditions as those of the pre-culturing and the MIC (unit: μg/ml) was determined by observing whether the bacteria grew or not.

P.aeruginosa IFO 3445 = test: Antibacterial Test 2: agar plate dilution method (aerobic MIC method), P.aeruginosa; type: cell-based; conditions: Pseudomonas aeruginosa, IFO3445, sensitive-disk agar medium-N
Description: as §1, §2, §3, §4

E.faecalis RIMD 3336001 = test: Antibacterial Test 2: agar plate dilution method (aerobic MIC method), E.faecalis; type: cell-based; conditions: Enterococcus faecalis, RIMD3336001, sensitive-disk agar medium-N
Description: as §1, §2, §3, §4

K.pneumoniae PCI 602 = test: Antibacterial Test 2: agar plate dilution method (aerobic MIC method), K.pneumoniae; type: cell-based; conditions: Klebsiella pneumoniae, PCI602, sensitive-disk agar medium-N
Description: as §1, §2, §3, §4

E.coli NIHJ JC-2 = test: Antibacterial Test 2: agar plate dilution method (aerobic MIC method), E.coli; type: cell-based; conditions: Escherichia coli, NIHJJC2, sensitive-disk agar medium-N
Description: as §1, §2, §3, §4

S.aureus FDA 209P = test: Antibacterial Test 2: agar plate dilution method (aerobic MIC method), S.aureus; type: cell-based; conditions: Staphylococcus aureus, FDA209P, sensitive-disk agar medium-N
Description: as §1, §2, §3, §4

M.luteus ATCC 9341 = test: Antibacterial Test 2: agar plate dilution method (aerobic MIC method), M.luteus; type: cell-based; conditions: Micrococcus luteus, ATCC9341, sensitive-disk agar medium-N
Description: as §1, §2, §3, §4

[1] = system: Helicobacter pylori standard strain ATCC 43526 (NCTC 11916); test: Antibacterial test 1: agar plate dilution method (anaerobic MIC method) against Hp; type: cell-based; conditions: 72 h; Helicobacter pylori ATCC 43526 (NCTC 11916); brucella agar + 7% horse blood, microaerobic, 37° C., 3 days
Description: Antibacterial test against Hp was performed in substantial accordance with agar plate dilution method (anaerobic MIC method) based on Standard method of The Japan Society of Chemotherapy to determine minimum inhibitory concentration (MIC) of the respective test compounds. The respective test compounds were sequentially dissolved in dimethyl sulfoxide (DMSO) and serially diluted twofold. […] Strain used for inoculation was Helicobacter pylori standard strain ATCC 43526 (NCTC 11916). For pre-culturing of bacteria to be inoculated, the above-mentioned strain freezingly conserved at -135° C. was thawed in a warm bath (40° C.), applied on a brucella agar medium containing 7% horse blood free from fibrin, and microaerobically cultured in a jar for anaerobic bacteria at 37° C. for 3 days. The solution of bacteria to be inoculated was prepared by collecting colonies grown on the culture medium and suspending the same in the brucella broth.

| SMILES | MIC (B.subtilis PCI 219) [µg/mL] | MIC (P.aeruginosa IFO 3445) [µg/mL] | MIC (E.faecalis RIMD 3336001) [µg/mL] | MIC (K.pneumoniae PCI 602) [µg/mL] | MIC (E.coli NIHJ JC-2) [µg/mL] | MIC (S.aureus FDA 209P) [µg/mL] | MIC (M.luteus ATCC 9341) [µg/mL] | MIC [1] [µg/mL] | cure rate (peptic ulcer) |
| --- | --- | --- | --- | --- | --- | --- | --- | --- | --- |
| CN/C(=N/CCSCc1nc[nH]c1C)NC#N [cimetidine] |  |  |  |  |  |  |  |  | 80-90% |
| O=C(O)CCCCCOc1ccc2c(=S)cc[nH]c2c1 [compound 51, 7-(5-Carboxy-n-pentyloxy)quinoline-4(1H)-thione] | > 100 | > 100 | 100 (≈ 343 µM) | > 100 | > 100 | 100 (≈ 343 µM) | > 100 | 1.56 |  |
| CCCCCCCCOc1ccc2c(=S)cc[nH]c2c1 [compound 53, 7-Octyloxyquinoline-4(1H)-thione] | > 100 | > 100 | > 100 | > 100 | > 100 | > 100 | > 100 | 3.13 |  |
| S=c1cc[nH]c2cc(N3CCNCC3)ccc12 [compound 54, 7-(1-Piperazinyl)quinoline-4(1H)-thione] | > 100 | > 100 | > 100 | > 100 | > 100 | 100 (≈ 408 µM) | > 100 | 3.13 |  |
| Cc1ccc2c(=S)cc[nH]c2c1C [compound 55, 7,8-Dimethylquinoline-4(1H)-thione] | > 100 | > 100 | > 100 | > 100 | > 100 | > 100 | > 100 | 0.39 |  |
| Cc1c(OCC(F)(F)F)ccnc1C[S+]([O-])c1nc2ccccc2[nH]1 (centres unmarked) [lansoprazole, reference compound] | > 100 | > 100 | > 100 | > 100 | > 100 | > 100 | > 100 | 12.5 |  |
| COc1ccc2[nH]c([S+]([O-])Cc3ncc(C)c(OC)c3C)nc2c1 (centres unmarked) [omeprazole] |  |  |  |  |  |  |  |  | 80-90% |

The next lines start with results.

| MIC (B.subtilis PCI 219) [µg/mL] | MIC (P.aeruginosa IFO 3445) [µg/mL] | MIC (E.faecalis RIMD 3336001) [µg/mL] | MIC (K.pneumoniae PCI 602) [µg/mL] | MIC (E.coli NIHJ JC-2) [µg/mL] | MIC (S.aureus FDA 209P) [µg/mL] | MIC (M.luteus ATCC 9341) [µg/mL] | MIC [1] [µg/mL] | SMILES | cure rate (peptic ulcer) |
| --- | --- | --- | --- | --- | --- | --- | --- | --- | --- |
| > 100 | > 100 | > 100 | > 100 | > 100 | > 100 | > 100 | 0.39 | S=c1cc[nH]c2c1ccc1ccccc12 [compound 39, Benzo[h]quinoline-4(1H)-thione] |  |
| > 100 | > 100 | > 100 | > 100 | > 100 | > 100 | > 100 | 0.2 | S=c1cc[nH]c2c3c(ccc12)CCCC3 [compound 40, 7,8,9,10-Tetrahydrobenzo[h]quinoline-4(1H)-thione] |  |
| > 100 | > 100 | > 100 | > 100 | > 100 | > 100 | > 100 | 0.78 | Cc1cccc2c(=S)cc[nH]c12 [compound 41, 8-Methylquinoline-4(1H)-thione] |  |
| > 100 | > 100 | > 100 | > 100 | > 100 | > 100 | 50 (≈ 199 µM) | 0.2 | S=c1cc[nH]c2cc(Cc3ccccc3)ccc12 [compound 47, 7-Benzylquinoline-4(1H)-thione] |  |
| > 100 | > 100 | > 100 | > 100 | > 100 | 100 (≈ 489 µM) | > 100 | 0.2 | CN(C)c1ccc2c(=S)cc[nH]c2c1 [compound 48, 7-N,N-Dimethylaminoquinoline-4(1H)-thione] |  |
| > 100 | > 100 | > 100 | > 100 | > 100 | > 100 | > 100 | 0.39 | CC(C)Sc1ccc2c(=S)cc[nH]c2c1 [compound 49, 7-Isopropylthioquinoline-4(1H)-thione] |  |
| > 100 | > 100 | > 100 | > 100 | > 100 | > 100 | > 100 | 1.56 | S=c1cc[nH]c2cc(CSc3nc4ccccc4[nH]3)ccc12 [compound 50, 7-(2-Benzimidazolyl)thiomethylquinoline-4(1H)-thione] |  |
